This note sets out measurements from the NIST ThermoML archive (doi:10.1021/je700362q).

± gives the expanded uncertainty stated by the source.

For data set [1] the following is noted: 298.15 K; 101.33 kPa; Liquid; Vibrating tube method.
A short description of data set [2]: refractive index (Na D-line) (dimensionless). The note with it: 298.15 K; 101.33 kPa; Liquid; Standard Abbe refractometry.

For the compound `CCCCCCCCn1cc[n+](C)c1.O=S(=O)([N-]S(=O)(=O)C(F)(F)F)C(F)(F)F`, the mass density (as a rule, the mass of a sample divided by its volume) in data set [1] was determined as 1320.76 ± 12 kg/m3. Also, the refractive index (in general, a measure of how strongly the sample bends light) in data set [2] is given as 1.43331 ± 0.0012.
In the case of `c1ccsc1` [thiophene], the mass density in data set [1] was 1058.5 ± 0.15 kg/m3. In addition, the refractive index in data set [2] is listed as 1.52581 ± 0.00073.
On to `CCCCCCCC[n+]1ccn(C)c1.F[B-](F)(F)F` [1-methyl-3-octylimidazolium tetrafluoroborate], for which the mass density in data set [1] was 1104.42 ± 8.5 kg/m3. In data set [2], the refractive index worked out at 1.43329 ± 0.0012.
For `CC1CCCCC1` [methylcyclohexane], in that order: 764.97 ± 0.31 kg/m3 and 1.42048 ± 0.00075.
